# US9611249B2, “1H-indazole-3-carboxamide compounds as glycogen synthase kinase 3 beta inhibitors” (AZIENDE CHIMICHE RIUNITE ANGELINI FRANCESCO A.C.R.A.F. …, priority 2012, dated 2017)
# Legend:
# PAK1 (h) = PAK1 (h) (Homo sapiens (Human), UniProt Q13153); assay: Kinase selectivity panel: PAK1 (h); type: biochemical; details: 10 μM in duplicate, read-out: % inhibition of control values
# Method: (§1) (a) Compounds 1 and 2 were tested against a panel of 60 kinases in order to assess their selectivity. The assays were chosen taking into consideration the diversity of assay families.
# (§2) Tested kinases were representative of following kinase sub-families: • protein-serine/threonine kinases; • protein-tyrosine kinases; • other kinases; and • atypical kinases.
# (§3) Human recombinant kinases were incubated in the presence of specific peptide substrates plus ATP for different times (10, 15, 30, 60 or 90 minutes) at 22° C. Phosphorylated substrate was detected by LANCE or HTRF technology (CISBIO, MA, USA). The compounds were tested at 10 μM in duplicate.
# (§4) The results are expressed as a percentage of inhibition of control specific activity obtained in the presence of the test compounds and are reported in the following Table 5.
# (§5) (b) Compounds 3, 8, 29 and 31 were tested against the same panel of 60 kinases under the same conditions described above for compounds 1 and 2.
# (§6) The results are expressed as a percent of inhibition of control specific activity obtained in the presence of the test compounds and are reported in the following Table 6.
# smMLCK (h) (MYLK) = smMLCK (h) (MYLK) (Homo sapiens (Human), UniProt Q15746); assay: Kinase selectivity panel: smMLCK (h) (MYLK); type: biochemical; details: 10 μM in duplicate, read-out: % inhibition of control values
# Method: as §1, §2, §3, §4, §5, §6
# CaMK4 (h) = CaMK4 (h) (Homo sapiens (Human), UniProt Q16566); assay: Kinase selectivity panel: CaMK4 (h); type: biochemical; details: 10 μM in duplicate, read-out: % inhibition of control values
# Method: as §1, §2, §3, §4, §5, §6
# AurB/Aur1 kinase (h) = AurB/Aur1 kinase (h) (Homo sapiens (Human), UniProt Q96GD4); assay: Kinase selectivity panel: AurB/Aur1 kinase (h); type: biochemical; details: 10 μM in duplicate, read-out: % inhibition of control values
# Method: as §1, §2, §3, §4, §5, §6
# DYRK1a (h) = DYRK1a (h) (Homo sapiens (Human), UniProt Q13627); assay: Kinase selectivity panel: DYRK1a (h); type: biochemical; details: 10 μM in duplicate, read-out: % inhibition of control values
# Method: as §1, §2, §3, §4, §5, §6
# AurA/Aur2 kinase (h) = AurA/Aur2 kinase (h) (Homo sapiens (Human), UniProt O14965); assay: Kinase selectivity panel: AurA/Aur2 kinase (h); type: biochemical; details: 10 μM in duplicate, read-out: % inhibition of control values
# Method: as §1, §2, §3, §4, §5, §6
# p38gamma kinase (h) = p38gamma kinase (h) (Homo sapiens (Human), UniProt P53778); assay: Kinase selectivity panel: p38gamma kinase (h); type: biochemical; details: 10 μM in duplicate, read-out: % inhibition of control values
# Method: as §1, §2, §3, §4, §5, §6
# MSK1 (h) = MSK1 (h) (Homo sapiens (Human), UniProt O75582); assay: Kinase selectivity panel: MSK1 (h); type: biochemical; details: 10 μM in duplicate, read-out: % inhibition of control values
# Method: as §1, §2, §3, §4, §5, §6
# JAK2 (h) = JAK2 (h) (Homo sapiens (Human), UniProt O60674); assay: Kinase selectivity panel: JAK2 (h); type: biochemical; details: 10 μM in duplicate, read-out: % inhibition of control values
# Method: as §1, §2, §3, §4, §5, §6
# NEK7 (h) = NEK7 (h) (Homo sapiens (Human), UniProt Q8TDX7); assay: Kinase selectivity panel: NEK7 (h); type: biochemical; details: 10 μM in duplicate, read-out: % inhibition of control values
# Method: as §1, §2, §3, §4, §5, §6
# PKCbeta 1 (h) = PKCbeta 1 (h) (Homo sapiens (Human), UniProt P05771); assay: Kinase selectivity panel: PKCbeta 1 (h); type: biochemical; details: 10 μM in duplicate, read-out: % inhibition of control values
# Method: as §1, §2, §3, §4, §5, §6
# CDC2/CDK1 (h) (cycB) = CDC2/CDK1 (h) (cycB) (Homo sapiens (Human), UniProt P06493); assay: Kinase selectivity panel: CDC2/CDK1 (h) (cycB); type: biochemical; details: 10 μM in duplicate, read-out: % inhibition of control values
# Method: as §1, §2, §3, §4, §5, §6
# AMPKalpha = assay: Kinase selectivity panel: AMPKalpha; type: biochemical, human; details: 10 μM in duplicate
# Method: as §1, §2, §3, §4, §5, §6
# MYT1 kinase (h) = MYT1 kinase (h) (Homo sapiens (Human), UniProt Q99640); assay: Kinase selectivity panel: MYT1 kinase (h); type: biochemical; details: 10 μM in duplicate, read-out: % inhibition of control values
# Chain of MYT1 kinase (h) (Q99640 whole entry): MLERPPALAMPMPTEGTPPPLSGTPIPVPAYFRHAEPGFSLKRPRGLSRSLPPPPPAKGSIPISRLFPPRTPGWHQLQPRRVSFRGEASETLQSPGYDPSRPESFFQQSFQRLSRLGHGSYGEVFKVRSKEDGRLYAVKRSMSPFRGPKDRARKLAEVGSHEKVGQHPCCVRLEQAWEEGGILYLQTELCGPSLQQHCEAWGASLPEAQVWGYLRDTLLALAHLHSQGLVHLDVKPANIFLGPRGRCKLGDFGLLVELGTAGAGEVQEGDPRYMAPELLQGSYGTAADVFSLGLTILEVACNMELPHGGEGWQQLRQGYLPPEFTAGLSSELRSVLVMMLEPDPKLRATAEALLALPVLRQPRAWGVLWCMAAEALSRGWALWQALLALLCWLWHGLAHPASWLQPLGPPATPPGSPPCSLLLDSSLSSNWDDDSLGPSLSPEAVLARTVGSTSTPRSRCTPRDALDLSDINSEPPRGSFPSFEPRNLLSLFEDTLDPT
# Method: as §1, §2, §3, §4, §5, §6
# mTOR kinase (h) (FRAP1) = mTOR kinase (h) (FRAP1) (Homo sapiens (Human), UniProt P42345); assay: Kinase selectivity panel: mTOR kinase (h) (FRAP1); type: biochemical; details: 10 μM in duplicate, read-out: % inhibition of control values
# Method: as §1, §2, §3, §4, §5, §6
# RSK2 (h) = RSK2 (h) (Homo sapiens (Human), UniProt P51812); assay: Kinase selectivity panel: RSK2 (h); type: biochemical; details: 10 μM in duplicate, read-out: % inhibition of control values
# Method: as §1, §2, §3, §4, §5, §6
# NEK1 (h) = NEK1 (h) (Homo sapiens (Human), UniProt Q96PY6); assay: Kinase selectivity panel: NEK1 (h); type: biochemical; details: 10 μM in duplicate, read-out: % inhibition of control values
# Method: as §1, §2, §3, §4, §5, §6
# p38alpha kinase (h) = p38alpha kinase (h) (Homo sapiens (Human), UniProt Q16539); assay: Kinase selectivity panel: p38alpha kinase (h); type: biochemical; details: 10 μM in duplicate, read-out: % inhibition of control values
# Chain of p38alpha kinase (h) (Q16539 whole entry): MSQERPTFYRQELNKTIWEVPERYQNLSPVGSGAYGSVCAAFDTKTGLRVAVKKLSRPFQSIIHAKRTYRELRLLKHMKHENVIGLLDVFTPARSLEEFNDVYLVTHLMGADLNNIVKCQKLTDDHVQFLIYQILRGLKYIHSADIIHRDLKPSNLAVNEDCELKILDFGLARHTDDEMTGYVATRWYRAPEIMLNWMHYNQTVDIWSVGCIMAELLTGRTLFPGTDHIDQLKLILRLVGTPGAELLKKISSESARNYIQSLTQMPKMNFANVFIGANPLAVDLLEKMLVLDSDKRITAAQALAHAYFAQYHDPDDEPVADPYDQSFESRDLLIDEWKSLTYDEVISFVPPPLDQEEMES
# Method: as §1, §2, §3, §4, §5, §6
# DAPK1 (h) = DAPK1 (h) (Homo sapiens (Human), UniProt P53355); assay: Kinase selectivity panel: DAPK1 (h); type: biochemical; details: 10 μM in duplicate, read-out: % inhibition of control values
# Chain of DAPK1 (h) (P53355 whole entry): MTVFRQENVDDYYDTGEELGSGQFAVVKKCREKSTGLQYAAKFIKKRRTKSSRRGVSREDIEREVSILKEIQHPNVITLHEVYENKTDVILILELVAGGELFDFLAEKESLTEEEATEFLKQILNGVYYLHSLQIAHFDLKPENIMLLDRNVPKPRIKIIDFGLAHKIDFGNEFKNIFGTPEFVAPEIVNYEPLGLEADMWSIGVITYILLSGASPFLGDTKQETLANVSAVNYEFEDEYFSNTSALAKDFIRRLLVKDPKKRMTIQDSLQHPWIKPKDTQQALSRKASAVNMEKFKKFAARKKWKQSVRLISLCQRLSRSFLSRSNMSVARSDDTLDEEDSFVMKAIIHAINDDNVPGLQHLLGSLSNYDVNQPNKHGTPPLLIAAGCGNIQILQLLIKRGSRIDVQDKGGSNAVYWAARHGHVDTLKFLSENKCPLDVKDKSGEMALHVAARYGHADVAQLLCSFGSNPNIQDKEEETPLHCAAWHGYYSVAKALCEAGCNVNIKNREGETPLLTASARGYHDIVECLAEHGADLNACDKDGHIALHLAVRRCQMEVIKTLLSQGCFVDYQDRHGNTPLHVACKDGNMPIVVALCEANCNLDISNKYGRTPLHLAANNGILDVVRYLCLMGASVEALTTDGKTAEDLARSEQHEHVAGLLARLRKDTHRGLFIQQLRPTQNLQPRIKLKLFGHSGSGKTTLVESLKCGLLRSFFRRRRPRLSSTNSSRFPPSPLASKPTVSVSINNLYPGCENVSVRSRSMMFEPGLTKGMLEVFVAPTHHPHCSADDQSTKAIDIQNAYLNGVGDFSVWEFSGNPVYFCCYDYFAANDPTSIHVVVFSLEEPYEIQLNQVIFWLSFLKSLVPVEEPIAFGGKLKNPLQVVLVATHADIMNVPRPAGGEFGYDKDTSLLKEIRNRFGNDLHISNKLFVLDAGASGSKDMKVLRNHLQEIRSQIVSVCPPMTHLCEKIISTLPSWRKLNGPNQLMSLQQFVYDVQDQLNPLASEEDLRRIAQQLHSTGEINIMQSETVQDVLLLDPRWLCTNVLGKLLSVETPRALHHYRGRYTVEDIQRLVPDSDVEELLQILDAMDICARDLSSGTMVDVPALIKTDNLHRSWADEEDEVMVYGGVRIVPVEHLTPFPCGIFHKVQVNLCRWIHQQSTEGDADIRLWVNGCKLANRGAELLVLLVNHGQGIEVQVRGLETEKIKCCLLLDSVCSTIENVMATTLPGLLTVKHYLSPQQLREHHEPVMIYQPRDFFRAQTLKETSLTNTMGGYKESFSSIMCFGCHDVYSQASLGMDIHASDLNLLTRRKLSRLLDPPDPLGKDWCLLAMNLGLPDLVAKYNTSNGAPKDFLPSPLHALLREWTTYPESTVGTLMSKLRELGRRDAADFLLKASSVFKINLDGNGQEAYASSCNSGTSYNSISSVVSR
# Method: as §1, §2, §3, §4, §5, §6
# PCTAIRE1 kinase (h) = PCTAIRE1 kinase (h) (Homo sapiens (Human), UniProt Q00536); assay: Kinase selectivity panel: PCTAIRE1 kinase (h); type: biochemical; details: 10 μM in duplicate, read-out: % inhibition of control values
# Chain of PCTAIRE1 kinase (h) (Q00536 whole entry): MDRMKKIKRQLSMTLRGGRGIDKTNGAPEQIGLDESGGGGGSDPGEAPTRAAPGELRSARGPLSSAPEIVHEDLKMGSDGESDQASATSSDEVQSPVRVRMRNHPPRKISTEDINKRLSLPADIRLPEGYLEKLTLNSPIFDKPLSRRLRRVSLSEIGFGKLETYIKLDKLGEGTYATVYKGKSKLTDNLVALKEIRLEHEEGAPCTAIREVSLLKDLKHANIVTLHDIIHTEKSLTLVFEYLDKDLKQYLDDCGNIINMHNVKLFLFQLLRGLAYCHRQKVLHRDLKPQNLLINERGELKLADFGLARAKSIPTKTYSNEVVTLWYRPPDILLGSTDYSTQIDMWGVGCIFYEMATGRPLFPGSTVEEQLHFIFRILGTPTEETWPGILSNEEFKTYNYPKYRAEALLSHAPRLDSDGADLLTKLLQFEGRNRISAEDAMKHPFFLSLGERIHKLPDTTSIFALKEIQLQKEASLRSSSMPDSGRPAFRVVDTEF
# Method: as §1, §2, §3, §4, §5, §6
# IKKepsilon (h) (IKBKE) = IKKepsilon (h) (IKBKE) (Homo sapiens (Human), UniProt Q14164); assay: Kinase selectivity panel: IKKepsilon (h) (IKBKE); type: biochemical; details: 10 μM in duplicate, read-out: % inhibition of control values
# Method: as §1, §2, §3, §4, §5, §6
# CHK1 (h) = CHK1 (h) (Homo sapiens (Human), UniProt O14757); assay: Kinase selectivity panel: CHK1 (h); type: biochemical; details: 10 μM in duplicate, read-out: % inhibition of control values
# Method: as §1, §2, §3, §4, §5, §6
# PKCgamma (h) = PKCgamma (h) (Homo sapiens (Human), UniProt P05129); assay: Kinase selectivity panel: PKCgamma (h); type: biochemical; details: 10 μM in duplicate, read-out: % inhibition of control values
# Method: as §1, §2, §3, §4, §5, §6
# TAOK2 (TAO1) (h) = TAOK2 (TAO1) (h) (Homo sapiens (Human), UniProt Q9UL54); assay: Kinase selectivity panel: TAOK2 (TAO1) (h); type: biochemical; details: 10 μM in duplicate, read-out: % inhibition of control values
# Method: as §1, §2, §3, §4, §5, §6
# Pim1 kinase (h) = Pim1 kinase (h) (Homo sapiens (Human), UniProt P11309); assay: Kinase selectivity panel: Pim1 kinase (h); type: biochemical; details: 10 μM in duplicate, read-out: % inhibition of control values
# Method: as §1, §2, §3, §4, §5, §6
# PKA (h) = PKA (h) (Homo sapiens (Human), UniProt P17612); assay: Kinase selectivity panel: PKA (h); type: biochemical; details: 10 μM in duplicate, read-out: % inhibition of control values
# Method: as §1, §2, §3, §4, §5, §6
# PDK1 (h) = PDK1 (h) (Homo sapiens (Human), UniProt O15530); assay: Kinase selectivity panel: PDK1 (h); type: biochemical; details: 10 μM in duplicate, read-out: % inhibition of control values
# Method: as §1, §2, §3, §4, §5, §6
# EphB2 kinase (h) = EphB2 kinase (h) (Homo sapiens (Human), UniProt P29323); assay: Kinase selectivity panel: EphB2 kinase (h); type: biochemical; details: 10 μM in duplicate, read-out: % inhibition of control values
# Chain of EphB2 kinase (h) (P29323 19-1055): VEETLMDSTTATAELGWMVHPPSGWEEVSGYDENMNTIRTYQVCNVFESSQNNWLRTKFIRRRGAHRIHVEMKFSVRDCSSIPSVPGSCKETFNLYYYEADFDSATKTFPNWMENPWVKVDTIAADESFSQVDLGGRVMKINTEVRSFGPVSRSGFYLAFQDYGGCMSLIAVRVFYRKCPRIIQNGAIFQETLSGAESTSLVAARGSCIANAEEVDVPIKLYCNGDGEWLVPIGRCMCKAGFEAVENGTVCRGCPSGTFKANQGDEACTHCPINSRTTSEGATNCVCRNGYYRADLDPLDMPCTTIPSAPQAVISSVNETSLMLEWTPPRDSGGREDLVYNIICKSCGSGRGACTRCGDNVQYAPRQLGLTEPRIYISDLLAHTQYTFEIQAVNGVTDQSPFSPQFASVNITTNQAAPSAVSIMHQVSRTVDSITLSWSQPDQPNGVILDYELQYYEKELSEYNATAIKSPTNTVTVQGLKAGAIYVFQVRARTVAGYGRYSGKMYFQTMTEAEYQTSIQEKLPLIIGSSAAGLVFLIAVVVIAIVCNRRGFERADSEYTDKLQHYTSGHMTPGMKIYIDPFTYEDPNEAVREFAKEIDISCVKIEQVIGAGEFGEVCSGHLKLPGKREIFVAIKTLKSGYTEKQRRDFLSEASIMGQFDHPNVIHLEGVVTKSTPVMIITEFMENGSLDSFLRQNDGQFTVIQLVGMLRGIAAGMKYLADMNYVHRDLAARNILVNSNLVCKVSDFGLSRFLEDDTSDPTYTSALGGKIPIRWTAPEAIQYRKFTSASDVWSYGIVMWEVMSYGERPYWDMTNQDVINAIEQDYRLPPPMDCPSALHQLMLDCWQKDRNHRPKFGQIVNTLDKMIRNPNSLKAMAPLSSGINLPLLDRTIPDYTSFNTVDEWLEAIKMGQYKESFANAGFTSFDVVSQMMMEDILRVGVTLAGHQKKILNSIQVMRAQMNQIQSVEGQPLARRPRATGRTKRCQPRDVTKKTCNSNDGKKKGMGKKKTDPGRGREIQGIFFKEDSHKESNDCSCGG
# Method: as §1, §2, §3, §4, §5, §6
# ERK1 (h) = ERK1 (h) (Homo sapiens (Human), UniProt P27361); assay: Kinase selectivity panel: ERK1 (h); type: biochemical; details: 10 μM in duplicate, read-out: % inhibition of control values
# Method: as §1, §2, §3, §4, §5, §6
# GRK3/BARK2 (h) (ADRBK2) = GRK3/BARK2 (h) (ADRBK2) (Homo sapiens (Human), UniProt P35626); assay: Kinase selectivity panel: GRK3/BARK2 (h) (ADRBK2); type: biochemical; details: 10 μM in duplicate, read-out: % inhibition of control values
# Chain of GRK3/BARK2 (h) (ADRBK2) (P35626 whole entry): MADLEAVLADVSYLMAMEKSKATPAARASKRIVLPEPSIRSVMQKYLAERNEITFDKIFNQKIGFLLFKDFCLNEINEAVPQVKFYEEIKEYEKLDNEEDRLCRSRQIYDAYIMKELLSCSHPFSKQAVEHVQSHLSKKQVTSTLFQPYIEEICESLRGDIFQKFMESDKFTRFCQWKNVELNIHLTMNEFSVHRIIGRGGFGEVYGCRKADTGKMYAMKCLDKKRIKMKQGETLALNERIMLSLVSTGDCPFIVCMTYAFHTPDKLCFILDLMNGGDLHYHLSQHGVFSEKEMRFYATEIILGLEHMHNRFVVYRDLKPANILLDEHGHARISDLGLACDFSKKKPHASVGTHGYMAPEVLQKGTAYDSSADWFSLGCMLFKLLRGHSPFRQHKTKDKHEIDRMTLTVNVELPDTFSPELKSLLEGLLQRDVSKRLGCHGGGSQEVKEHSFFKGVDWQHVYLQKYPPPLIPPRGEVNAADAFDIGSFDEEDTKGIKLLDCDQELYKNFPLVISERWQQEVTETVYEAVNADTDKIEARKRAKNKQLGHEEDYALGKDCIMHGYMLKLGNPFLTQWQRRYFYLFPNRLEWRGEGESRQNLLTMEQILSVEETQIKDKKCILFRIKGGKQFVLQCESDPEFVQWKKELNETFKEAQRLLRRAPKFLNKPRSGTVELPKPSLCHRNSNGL
# Method: as §1, §2, §3, §4, §5, §6
# PhKgamma 2 (h) = PhKgamma 2 (h) (Homo sapiens (Human), UniProt P15735); assay: Kinase selectivity panel: PhKgamma 2 (h); type: biochemical; details: 10 μM in duplicate, read-out: % inhibition of control values
# Method: as §1, §2, §3, §4, §5, §6
# IKKalpha (h) = IKKalpha (h) (Homo sapiens (Human), UniProt O15111); assay: Kinase selectivity panel: IKKalpha (h); type: biochemical; details: 10 μM in duplicate, read-out: % inhibition of control values
# Method: as §1, §2, §3, §4, §5, §6
# FGFR4 kinase (h) = FGFR4 kinase (h) (Homo sapiens (Human), UniProt P22455); assay: Kinase selectivity panel: FGFR4 kinase (h); type: biochemical; details: 10 μM in duplicate, read-out: % inhibition of control values
# Method: as §1, §2, §3, §4, §5, §6
# MEK1/MAP2K1 (h) = MEK1/MAP2K1 (h) (Homo sapiens (Human), UniProt Q02750); assay: Kinase selectivity panel: MEK1/MAP2K1 (h); type: biochemical; details: 10 μM in duplicate, read-out: % inhibition of control values
# Chain of MEK1/MAP2K1 (h) (Q02750 whole entry): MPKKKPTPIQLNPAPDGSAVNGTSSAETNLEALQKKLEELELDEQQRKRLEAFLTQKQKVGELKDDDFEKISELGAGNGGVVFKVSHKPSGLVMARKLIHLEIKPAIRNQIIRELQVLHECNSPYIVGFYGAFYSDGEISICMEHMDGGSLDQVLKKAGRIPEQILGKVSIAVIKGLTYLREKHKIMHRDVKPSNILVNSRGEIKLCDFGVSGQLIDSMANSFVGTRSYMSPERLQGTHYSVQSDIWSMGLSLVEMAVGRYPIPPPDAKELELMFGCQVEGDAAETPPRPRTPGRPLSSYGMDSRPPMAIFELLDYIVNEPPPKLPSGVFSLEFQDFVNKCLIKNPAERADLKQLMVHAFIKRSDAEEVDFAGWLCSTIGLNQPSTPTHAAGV
# Method: as §1, §2, §3, §4, §5, §6
smiles,measurement,setting,value
"COc1ccc2[nH]nc(C(=O)NCC3CCN(CC(=O)O)CC3)c2c1 [Compound 1, [4-({[(5-methoxy-1H-indazol-3-yl)-carbonyl]amino}methyl)piperidin-1-yl]acetic acid]",inhibition at 10 µM,PAK1 (h),1%
same,inhibition at 10 µM,smMLCK (h) (MYLK),0%
same,inhibition at 10 µM,CaMK4 (h),0%
same,inhibition at 10 µM,AurB/Aur1 kinase (h),0%
same,inhibition at 10 µM,DYRK1a (h),76%
same,inhibition at 10 µM,AurA/Aur2 kinase (h),7%
same,inhibition at 10 µM,p38gamma kinase (h),0%
same,inhibition at 10 µM,MSK1 (h),7%
same,inhibition at 10 µM,JAK2 (h),0%
same,inhibition at 10 µM,NEK7 (h),0%
same,inhibition at 10 µM,PKCbeta 1 (h),0%
same,inhibition at 10 µM,CDC2/CDK1 (h) (cycB),7%
same,% inhibition of control values,AMPKalpha,16%
same,inhibition at 10 µM,MYT1 kinase (h),0%
same,inhibition at 10 µM,mTOR kinase (h) (FRAP1),2%
same,inhibition at 10 µM,RSK2 (h),0%
same,inhibition at 10 µM,NEK1 (h),0%
same,inhibition at 10 µM,p38alpha kinase (h),0%
same,inhibition at 10 µM,DAPK1 (h),22%
same,inhibition at 10 µM,PCTAIRE1 kinase (h),22%
same,inhibition at 10 µM,IKKepsilon (h) (IKBKE),0%
same,inhibition at 10 µM,CHK1 (h),5%
same,inhibition at 10 µM,PKCgamma (h),3%
same,inhibition at 10 µM,TAOK2 (TAO1) (h),3%
same,inhibition at 10 µM,Pim1 kinase (h),0%
same,inhibition at 10 µM,PKA (h),0%
same,inhibition at 10 µM,PDK1 (h),6%
same,inhibition at 10 µM,EphB2 kinase (h),4%
same,inhibition at 10 µM,ERK1 (h),20%
same,inhibition at 10 µM,GRK3/BARK2 (h) (ADRBK2),0%
same,inhibition at 10 µM,PhKgamma 2 (h),30%
same,inhibition at 10 µM,IKKalpha (h),0%
same,inhibition at 10 µM,FGFR4 kinase (h),0%
same,inhibition at 10 µM,MEK1/MAP2K1 (h),24%
